One experiment deals with human tumor cell lines. The experiment is described as follows: NCI three-cell line evaluation, overall activity call. To be noted: three-cell line (lung, breast, CNS); 5.00 E-05 Molar. It counts as cell-based.
A further experiment deals with CNS tumor cell line. Description: NCI in vitro anti-tumor screen, three-cell line evaluation (SRB protein assay), CNS. The experiment is classed as cell-based, human. The settings on record: sample concentration 5.00 E-05 Molar, 48 hour continuous drug exposure.
A further experiment deals with breast tumor cell line. The experiment is described as follows: NCI in vitro anti-tumor screen, three-cell line evaluation (SRB protein assay), breast. It counts as cell-based, human. To be noted: sample concentration 5.00 E-05 Molar, 48 hour continuous drug exposure. As for the experimental part: The testing below was conducted by the United States Public Health Service, Department of Health and Human Services. […] A 48 hour continuous drug exposure protocol is used, and a sulforhodamine B (SRB) protein assay is used to estimate cell viability or growth.
(§1) Data for the compound shown in the attached FIG. 3 which was tested according to the National Cancer Institutes Developmental Theraputics Program (dose response curves) is shown in attached FIG. 13.
In general terms: The SRB assay estimates cell density from bound dye.

A further experiment deals with lung tumor cell line. Description: NCI in vitro anti-tumor screen, three-cell line evaluation (SRB protein assay), lung. It counts as cell-based, human. The settings on record: sample concentration 5.00 E-05 Molar, 48 hour continuous drug exposure. As for the experimental part:
The testing below was conducted by the United States Public Health Service, Department of Health and Human Services. The National Cancer Institute (NCl) in vitro anti-tumor screening test consists of about 60 human tumor cell lines against which compounds are tested at a minimum of 5 concentrations at 10 fold dilutions. A 48 hour continuous drug exposure protocol is used, and a sulforhodamine B (SRB) protein assay is used to estimate cell viability or growth.
as §1

Structures are written as SMILES.

Regarding `CC[C@H](C)[C@H](NC(=O)[C@H](Cc1ccc(O)cc1)NCC(F)(F)F)C(=O)OC(C)(C)C` [S712619], the outcome in the experiment on human tumor cell lines was active. Moreover, the “Growth Percentages CNS” value in the experiment on CNS tumor cell line is −75%. The “Growth Percentages breast” value in the experiment on breast tumor cell line was −57%. Moreover, the “Growth Percentages lung” value in the experiment on lung tumor cell line is listed as −77%.

These data come from patent US6794492B2, “Perfluoroalkyl compounds and their methods of use and manufacture” (Clemson University, priority 2000, dated 2004).
